Measurements published in patent US20230063230A1, “NURR1 RECEPTOR MODULATORS” (priority 2019, published 2023).

Columns and labels:
Th in MN9D = experiment: qPCR MN9D Th; assay type: cell-based; conditions: cpds tested at 10 μM, analogs of compound 87
Nurr1 in MN9D = experiment: qPCR MN9D Nurr1; assay type: cell-based; conditions: cpds tested at 10 μM, analogs of compound 87

## CC(=O)SCCn1cc(C(C)(C)NC(=O)c2cccc(C#N)c2)nn1 [SP 196, S-2-(4-(2-(3-cyanobenzamido)propan-2-yl)-1H-1,2,3-triazol-1-yl)ethyl ethanethioate]
Th in MN9D
  fold induction at 10 µM: > 1.5
Nurr1 in MN9D
  fold induction at 10 µM: > 4
